Source: patent US4032625A, “Bone-seeking technetium-99m complex” (priority 1975, dated 1977)
Like-named read-outs stand apart in the source and are kept apart here.

Details: 2 Hrs

SMILES: [85Sr] [^85 Sr]
- % Dose in Whole Organ: Blood (0.1 mg/kg AEDP): 2.48 % Dose
- % Dose in Whole Organ: Kidneys (0.1 mg/kg AEDP): 0.324 % Dose
- % Dose in Whole Organ: Liver (0.1 mg/kg AEDP): 0.654 % Dose
- % Dose in Whole Organ: Marrow (0.1 mg/kg AEDP): 0.244 % Dose
- % Dose in Whole Organ: Muscle (0.1 mg/kg AEDP): 5.15 % Dose
- % Dose in Whole Organ: W. Femur (0.1 mg/kg AEDP): 3.27 % Dose
- % Dose in Whole Organ: W. Tibia (0.1 mg/kg AEDP): 2.99 % Dose
- % Dose/1% Body weight: Blood (0.1 mg/kg AEDP): 0.354 % Dose/1% Body weight
- % Dose/1% Body weight: Bone Ave (0.1 mg/kg AEDP): 10.48 % Dose/1% Body weight
- % Dose/1% Body weight: Femur (0.1 mg/kg AEDP): 10.97 % Dose/1% Body weight
- % Dose/1% Body weight: Kidneys (0.1 mg/kg AEDP): 0.441 % Dose/1% Body weight
- % Dose/1% Body weight: Liver (0.1 mg/kg AEDP): 0.182 % Dose/1% Body weight
- % Dose/1% Body weight: Marrow (0.1 mg/kg AEDP): 0.166 % Dose/1% Body weight
- % Dose/1% Body weight: Muscle (0.1 mg/kg AEDP): 0.136 % Dose/1% Body weight
- % Dose/1% Body weight: Pelvis (0.1 mg/kg AEDP): 8.66 % Dose/1% Body weight
- % Dose/1% Body weight: Spine (0.1 mg/kg AEDP): 10.56 % Dose/1% Body weight
- % Dose/1% Body weight: Tibia (0.1 mg/kg AEDP): 11.71 % Dose/1% Body weight
- % Dose: Urine (0.1 mg/kg AEDP): 12.1 % Dose
- % Dose in Whole Organ: Blood (0.1 mg/kg EHDP): 3.10 % Dose
- % Dose in Whole Organ: Kidneys (0.1 mg/kg EHDP): 0.30 % Dose
- % Dose in Whole Organ: Liver (0.1 mg/kg EHDP): 0.64 % Dose
- % Dose in Whole Organ: Marrow (0.1 mg/kg EHDP): 0.43 % Dose
- % Dose in Whole Organ: One Femur (0.1 mg/kg EHDP): 3.42 % Dose
- % Dose/1%-body weight: Blood (0.1 mg/kg EHDP): 0.443 % Dose/1%-body weight
- % Dose/1%-body weight: Femur (0.1 mg/kg EHDP): 10.9 % Dose/1%-body weight
- % Dose/1%-body weight: Kidney (0.1 mg/kg EHDP): 0.513 % Dose/1%-body weight
- % Dose/1%-body weight: Liver (0.1 mg/kg EHDP): 0.230 % Dose/1%-body weight
- % Dose/1%-body weight: Marrow (0.1 mg/kg EHDP): 0.195 % Dose/1%-body weight
- % Dose: Urine (0.1 mg/kg EHDP): 11.31 % Dose
- % Dose in Whole Organ: Blood (0.1 mg/kg MDP): 3.95 % Dose
- % Dose in Whole Organ: Kidneys (0.1 mg/kg MDP): 0.66 % Dose
- % Dose in Whole Organ: Liver (0.1 mg/kg MDP): 1.05 % Dose
- % Dose in Whole Organ: Marrow (0.1 mg/kg MDP): 0.57 % Dose
- % Dose in Whole Organ: Muscle (0.1 mg/kg MDP): 9.32 % Dose
- % Dose in Whole Organ: One Femur (0.1 mg/kg MDP): 2.80 % Dose
- % Dose/1% Body weight: Blood (0.1 mg/kg MDP): 0.56 % Dose/1% body weight
- % Dose/1% Body weight: Femur (0.1 mg/kg MDP): 10.0 % Dose/1% body weight
- % Dose/1% Body weight: Kidneys (0.1 mg/kg MDP): 1.00 % Dose/1% body weight
- % Dose/1% Body weight: Liver (0.1 mg/kg MDP): 0.30 % Dose/1% body weight
- % Dose/1% Body weight: Marrow (0.1 mg/kg MDP): 0.26 % Dose/1% body weight
- % Dose/1% Body weight: Muscle (0.1 mg/kg MDP): 0.22 % Dose/1% body weight
- % Dose/1% Body weight: Pelvis (0.1 mg/kg MDP): 12.2 % Dose/1% body weight
- % Dose/1% Body weight: Spine (0.1 mg/kg MDP): 8.45 % Dose/1% body weight
- % Dose/1% Body weight: Tibia (0.1 mg/kg MDP): 6.05 % Dose/1% body weight
- % Dose/1% body weight: Ave Bone (0.1 mg/kg MDP): 9.17 % Dose/1% body weight
- % Dose: Urine (0.1 mg/kg MDP): 15.4 % Dose
- % Dose in Whole Organ: Blood (0.5 mg/kg AEDP): 4.36 % Dose
- % Dose in Whole Organ: Kidneys (0.5 mg/kg AEDP): 0.384 % Dose
- % Dose in Whole Organ: Liver (0.5 mg/kg AEDP): 0.720 % Dose
- % Dose in Whole Organ: Marrow (0.5 mg/kg AEDP): 0.456 % Dose
- % Dose in Whole Organ: Muscle (0.5 mg/kg AEDP): 6.51 % Dose
- % Dose in Whole Organ: W. Femur (0.5 mg/kg AEDP): 2.75 % Dose
- % Dose in Whole Organ: W. Tibia (0.5 mg/kg AEDP): 2.42 % Dose
- % Dose/1% Body weight: Blood (0.5 mg/kg AEDP): 0.624 % Dose/1% Body weight
- % Dose/1% Body weight: Bone Ave (0.5 mg/kg AEDP): 10.78 % Dose/1% Body weight
- % Dose/1% Body weight: Femur (0.5 mg/kg AEDP): 10.43 % Dose/1% Body weight
- % Dose/1% Body weight: Kidneys (0.5 mg/kg AEDP): 0.924 % Dose/1% Body weight
- % Dose/1% Body weight: Liver (0.5 mg/kg AEDP): 0.270 % Dose/1% Body weight
- % Dose/1% Body weight: Marrow (0.5 mg/kg AEDP): 0.207 % Dose/1% Body weight
- % Dose/1% Body weight: Muscle (0.5 mg/kg AEDP): 0.151 % Dose/1% Body weight
- % Dose/1% Body weight: Pelvis (0.5 mg/kg AEDP): 11.42 % Dose/1% Body weight
- % Dose/1% Body weight: Spine (0.5 mg/kg AEDP): 9.87 % Dose/1% Body weight
- % Dose/1% Body weight: Tibia (0.5 mg/kg AEDP): 11.37 % Dose/1% Body weight
- % Dose: Urine (0.5 mg/kg AEDP): 10.47 % Dose
- % Dose in Whole Organ: Blood (0.5 mg/kg EHDP): 4.43 % Dose
- % Dose in Whole Organ: Kidneys (0.5 mg/kg EHDP): 0.48 % Dose
- % Dose in Whole Organ: Liver (0.5 mg/kg EHDP): 0.76 % Dose
- % Dose in Whole Organ: Marrow (0.5 mg/kg EHDP): 0.34 % Dose
- % Dose in Whole Organ: One Femur (0.5 mg/kg EHDP): 2.48 % Dose
- % Dose/1%-body weight: Blood (0.5 mg/kg EHDP): 0.633 % Dose/1%-body weight
- % Dose/1%-body weight: Femur (0.5 mg/kg EHDP): 9.213 % Dose/1%-body weight
- % Dose/1%-body weight: Kidney (0.5 mg/kg EHDP): 0.972 % Dose/1%-body weight
- % Dose/1%-body weight: Liver (0.5 mg/kg EHDP): 0.244 % Dose/1%-body weight
- % Dose/1%-body weight: Marrow (0.5 mg/kg EHDP): 0.152 % Dose/1%-body weight
- % Dose: Urine (0.5 mg/kg EHDP): 19.67 % Dose
- % Dose in Whole Organ: Blood (0.5 mg/kg MDP): 3.11 % Dose
- % Dose in Whole Organ: Kidneys (0.5 mg/kg MDP): 0.45 % Dose
- % Dose in Whole Organ: Liver (0.5 mg/kg MDP): 0.69 % Dose
- % Dose in Whole Organ: Marrow (0.5 mg/kg MDP): 0.67 % Dose
- % Dose in Whole Organ: Muscle (0.5 mg/kg MDP): 5.65 % Dose
- % Dose in Whole Organ: One Femur (0.5 mg/kg MDP): 2.96 % Dose
- % Dose/1% Body weight: Blood (0.5 mg/kg MDP): 0.45 % Dose/1% body weight
- % Dose/1% Body weight: Femur (0.5 mg/kg MDP): 11.32 % Dose/1% body weight
- % Dose/1% Body weight: Kidneys (0.5 mg/kg MDP): 0.69 % Dose/1% body weight
- % Dose/1% Body weight: Liver (0.5 mg/kg MDP): 0.23 % Dose/1% body weight
- % Dose/1% Body weight: Marrow (0.5 mg/kg MDP): 0.30 % Dose/1% body weight
- % Dose/1% Body weight: Muscle (0.5 mg/kg MDP): 0.13 % Dose/1% body weight
- % Dose/1% Body weight: Pelvis (0.5 mg/kg MDP): 8.68 % Dose/1% body weight
- % Dose/1% Body weight: Spine (0.5 mg/kg MDP): 8.92 % Dose/1% body weight
- % Dose/1% Body weight: Tibia (0.5 mg/kg MDP): 6.16 % Dose/1% body weight
- % Dose/1% body weight: Ave Bone (0.5 mg/kg MDP): 8.77 % Dose/1% body weight
- % Dose: Urine (0.5 mg/kg MDP): 15.16 % Dose
